Experimental data from US12624004B2 (Fudan University, priority 2019, dated 2026).

Key:
Female mice = assay: In vivo hot plate method analgesia test; conditions: intraperitoneal; for Maximum percentage effective analgesic (% MPE): Table 1-2, hot plate 55° C.; for Maximum percentage effective analgesic (% MPE) / % MPE (5 mg/kg): 5 mg/kg dose; for ED50: Mus musculus, ip, Table 4-2, hot plate; for % MPE: Table 4-2, hot plate 55° C.; for % MPE / Maximum percentage effective analgesia (% MPE): 10 mg/kg dose; for % MPE (5 mg/kg): Table 2-2, hot plate 55° C.; for Maximum percentage effective analgesia (% MPE): Table 5-2, hot plate 55° C.
Description: Female mice weighing about 20 g were placed on a hot plate apparatus preheated to 55° C., and the latency of the hindfoot response of the mice was used as the pain threshold indicator. Animals were screened before the experiment, and those with response latency less than 5 s or more than 30 s were excluded. To prevent foot scalding, the maximum observation time was set at 60 s. The basal pain threshold was the average of two measurements, with a 5-min interval between measurements. pain thresholds were measured at 15 m, 30 m, 60 m and 120 m after intraperitoneal injection in each group of mice. The percentage effective analgesia (% MPE) was calculated according to the following formula: percentage effective analgesia (% MPE) (post-dose latency−pre-dose latency)/(60−pre-dose latency)×100%. ED50 values were calculated based on the effective percentage of analgesia using the software Graphpad prism 5.0 software.
(§1) Female mice weighing about 20 g were placed on a hot plate apparatus preheated to 55° C., and the latency of the hindfoot response of the mice was used as the pain threshold indicator. Animals were selected before the experiment, and those with response latency less than 5 s or greater than 30 s were excluded. To prevent foot scalding, the maximum observation time was set at 60 s. The basal pain threshold was the average of two measurements, with a 5-min interval between measurements. pain thresholds were measured at 15 min, 30 min, 60 min and 120 min after intraperitoneal administration in each group of mice. The percentage of analgesic effectiveness (% MPE) was calculated according to the following equation. Percentage of effective analgesia (% MPE)_(Pre-dose incubation period−Incubation period after drug administration)/(60-Pre-dose incubation period)×100%. ED50 values were calculated based on the effective percentage of analgesia using GraphPad prism 5.0 software.
as §1, with “were screened” for “were selected”, “measurements. Pain” for “measurements. pain”, “following formula.” for “following equation. Percentage of effective analgesia (% MPE)_(Pre-dose incubation period−Incubation period after drug administration)/(60-Pre-dose incubation period)×100%. ED50 values were calculated based on the effective percentage of analgesia using GraphPad prism 5.0 software.”
ED50 values were calculated based on the effective percentage of analgesia using Graphpad Prism 5.0.
Female mice weighing about 20 g were placed on a hot plate apparatus preheated to 55° C., and the latency of the hindfoot response of the mice was used as the pain threshold indicator. Animals were screened before the experiment, and those with response latency less than 5 s or more than 30 s were excluded. To prevent foot scalding, the maximum observation time was set at 60 s. The basal pain threshold was the average of two measurements, with a 5-min interval between measurements. pain thresholds were measured at 15 min, 30 min, 60 min and 120 min after intraperitoneal administration in each group of mice. The analgesic effective percentage (% MPE) was calculated according to the following formula: analgesic effective percentage (% MPE)=(latency after drug administration−latency before drug administration)/(60−latency before drug administration)×100%. ED50 values were calculated based on the effective percentage of analgesia using the software Graphpad prism 5.0.
Female mice weighing about 20 g were placed on a hot plate apparatus preheated to 55° C. and the latency of the hindfoot response was used as an indicator of pain threshold. […]

μ opioid receptor = target: T1, μ opioid receptor (Homo sapiens, UniProt P35372); assay: Competition binding assay on membranes of CHO cells expressing μ opioid receptor, [3H]-labeled ligand; conditions: for inhibition at 10 µM: Table 1-1, 10 μM concentration of compound, mean ± SD of three measurements, read-out: μOR Binding rate (%); for Ki: Table 5-1, read-out: μOR Ki
T1 construct: expressed in transfected cells; host or cells: CHO cells (membranes)
Description: (§2) CHO cells expressing p opioid receptor, δ opioid receptor and κ opioid receptor were cultured in 10 cm^2 culture dishes (F-12 medium+10% neonatal bovine serum) for several days, and the culture fluid was aspirated after the cells had grown to the bottom of the dishes; 3 ml of PBS/EDTA solution (0.1M NaCl, 0.01M NaH2PO4, 0.04% EDTA) was added to digest the cells for 3-5 min. Add ice-cold homogenate (50 mM HEPES PH 7.4, 3 mM MgCl, 1 mM EGTA) to the centrifuge tube, transfer the solution and sediment to a homogenizer and homogenize; then transfer the homogenate to a centrifuge tube and centrifuge at 18000 rpm. Centrifuge for 15 min, two times; the obtained precipitate was homogenized with appropriate amount of 50 mM Tris-HCl, pH 7.4 buffer and divided into centrifuge tubes and stored at −70° C. in the refrigerator until use.
(§3) The total binding tube was spiked with 20-30 μg of the expressed membrane receptor protein and […] ligand (1-2 nM), the corresponding non-specific binding tube was spiked with 1 μM of the corresponding ligand, and the sample tubes were spiked with various screened opioid ligands in a final volume of […], incubated at 30° C. for 30 min, and the reaction was terminated in ice water. […] The samples were filtered under negative pressure through GF/C (whatman) glass fiber filter paper on a Millipore sample collector. The reaction was rinsed three times with 4 ml of 50 mMV Tris-HCl (pH 7.4), the filter paper was dried and placed in 0.5 ml Eppendorf tubes with 0.5 ml of lipophilic scintillation solution, the radioactivity was measured by PERKIN ELMER PRI-CARB 2910 liquid scintillation counter and the inhibition rate was calculated. Inhibition rate (or binding rate)=(total binding rate dpm−sample tube dpm)/(total binding tube dpm−non-specific binding tube dpm)×100%
(§4) IC50 was calculated using Prism 5.0 software. the Ki value was calculated as follows, Ki=IC50/(1+[IL]/Kd), [lL] is the concentration of the added labeled ligand and Kd is the equilibrium dissociation parameter of the labeled ligand.
(§5) CHO cells expressing p opioid receptor, δ opioid receptor and κ opioid receptor were cultured in a 10 cm^2 culture dish (F-12 medium+10% neonatal bovine serum) for several days, and the culture fluid was aspirated after the cells grew to the bottom of the dish. 3 mL PBS/EDTA solution (0.1 M NaCl, 0.01 M NaH2PO4, 0.04% EDTA) was added to digest the cells for 3˜5 min, blew with a pipette to completely dislodge the cells. The cells were collected in a 40 mL centrifuge tube, centrifuged at 5000 rpm for 5 min. The supernatant was removed and the ice-cold homogenate (50 mM HEPES pH 7.4, 3 mM MgCl2, 1 mM EGTA) was added to the centrifuge tube. The solution and the precipitate were transferred to a homogenizer. Then the homogenate was transferred to a centrifuge tube and centrifuged at 18000 rpm for 15 min. The precipitate was centrifuged twice at 18000 rpm for 15 min. The obtained precipitate was homogenized by adding appropriate amount of 50 mM Tris-HCl, pH 7.4 buffer and divided into centrifuge tubes and stored at −70° C. in the refrigerator until use.
(§6) The total binding tube was added with 20-30 μg of expressed membrane receptor protein and [3H]-labeled ligand (1-2 nM). The corresponding non-specific binding tube was added with 1 μM of the corresponding ligand, and the sample tubes were added with various screened opioid ligands in a final volume of 100 μL. All of them were incubated for 30 min at 30° C., and the reaction was terminated in ice water. The samples were filtered under negative pressure through GF/C (Whatman) glass fiber filter paper on a Millipore sample collector. The reaction was rinsed three times with 4 mL of 50 mM Tris-HCl (pH 7.4), the filter paper was dried and placed in 0.5 mL Eppendorf tubes with 0.5 mL of lipophilic scintillation solution. […]

δ opioid receptor = target: T2, δ opioid receptor (Homo sapiens, UniProt P41143); assay: Competition binding assay on membranes of CHO cells expressing δ opioid receptor, [3H]-labeled ligand; conditions: for inhibition at 10 µM: 0.5 h, Table 1-1, 10 μM concentration of compound, read-out: δOR Binding rate (%); for Ki: Table 5-1, read-out: δOR Ki
T2 construct: expressed in transfected cells; host or cells: CHO cells (membranes)
Description: as §2, §3, §4, §5, §6

κ opioid receptor = target: T3, κ opioid receptor (Homo sapiens, UniProt P41145); assay: Competition binding assay on membranes of CHO cells expressing κ opioid receptor, [3H]-labeled ligand; conditions: for inhibition at 10 µM: 0.5 h, Table 1-1, 10 μM concentration of compound, read-out: κOR Binding rate (%)
T3 construct: expressed in transfected cells; host or cells: CHO cells (membranes)
Description: as §2, §3, §4, §5, §6

## COc1cccc(C2(OC(=O)c3ccccc3)CCC(N(C)S(=O)(=O)Cc3ccccc3)CC2CN(C)C)c1.Cl (stereo not drawn)
Female mice
  Maximum percentage effective analgesic (% MPE): 37.2%

## COc1cccc(C2(O)CCC(NS(=O)(=O)c3cccc(Cl)c3)CC2CN(C)C)c1 (stereo not drawn)
μ opioid receptor
  inhibition at 10 µM: 79.7 ± 4.6%
δ opioid receptor
  inhibition at 10 µM: 14.5 ± 5.8%
κ opioid receptor
  inhibition at 10 µM: 35.9 ± 5.7%

## COc1cccc(C2(OC(=O)c3ccccc3)CCC(N(C)S(=O)(=O)Cc3cccc(Cl)c3)CC2CN(C)C)c1.Cl (stereo not drawn)
Female mice
  Maximum percentage effective analgesic (% MPE): 0%

## COc1cccc(C2(OC(=O)c3ccccc3)CCC(NS(=O)(=O)c3cccc(Cl)c3)CC2CN(C)C)c1 (stereo not drawn)
μ opioid receptor
  inhibition at 10 µM: 70.4 ± 3%
δ opioid receptor
  inhibition at 10 µM: 18.8 ± 8.6%
κ opioid receptor
  inhibition at 10 µM: 39 ± 5.5%

## COc1cccc([C@]2(O)CCN(C(=O)Cc3cc(F)c(F)cc3F)CC2CN(C)C)c1.Cl (stereo partly drawn)
Female mice
  ED50: 0.54 mg/kg

## CN(C)C[C@@H]1CN(C(=O)Cc2cc(F)c(F)cc2F)CC[C@@]1(O)c1cccc(O)c1.Cl
Female mice
  % MPE: 29.7%

## COc1cccc([C@@]2(O)CCN(C(=O)Cc3cc(F)c(F)cc3F)C[C@@H]2CN(C)C)c1.Cl
Female mice
  % MPE: 10.5%

## CN(C)CC1CN(S(=O)(=O)Cc2ccccc2)CCC1(O)c1cccc(OC(F)(F)F)c1.Cl (stereo not drawn)
Female mice
  % MPE (5 mg/kg): 20.2%

## COc1cccc(C2(OC(F)F)CCN(S(=O)(=O)Cc3ccccc3)CC2CN(C)C)c1.Cl (stereo not drawn)
Female mice
  % MPE (5 mg/kg): 8.38%

## COc1cccc(C2(O)CCC(NS(=O)(=O)Cc3cccc(Cl)c3)CC2CN(C)C)c1.Cl (stereo not drawn) [1-(3-Chlorophenyl)-N-(3-((dimethylamino)methyl)-4-hydroxy-4-(3-methoxyphenyl)cyclohexyl)methanesulfonamide hydrochloride]
Female mice
  Maximum percentage effective analgesic (% MPE): 15.2%

## COc1cccc(C2(O)CCC(NS(=O)(=O)c3cccc(Cl)c3)CC2CN(C)C)c1.Cl (stereo not drawn) [3-Chloro-N-(3-((dimethylamino)methyl)-4-hydroxy-4-(3-methoxyphenyl)cyclohexyl)benzenesulfonamide hydrochloride]
Female mice
  Maximum percentage effective analgesic (% MPE): 11.7%

## COc1cccc(C2(OC(=O)c3ccccc3)CCC(NS(=O)(=O)c3cccc(Cl)c3)CC2CN(C)C)c1.Cl (stereo not drawn) [4-((3-Chlorophenyl)sulfonylamino)-2-((dimethylamino)methyl)-1-(3-methoxyphenyl)cyclohexyl benzoate hydrochloride]
Female mice
  Maximum percentage effective analgesic (% MPE): 11.6%

## COc1cccc(C2(O)CCC(S(=O)(=O)Cc3ccccc3)CC2CN(C)C)c1.Cl (stereo not drawn) [4-(Benzylsulfonyl)-2-((dimethylamino)methyl)-1-(3-methoxyphenyl)cyclohexane-1-ol hydrochloride]
Female mice
  Maximum percentage effective analgesic (% MPE): 21.7%

## COc1cccc([C@]2(O)CCN(S(=O)(=O)Cc3ccccc3)C[C@H]2CN(C)C)c1.Cl [(3R,4S)-1-(Benzylsulfonyl)-3-((dimethylamino)methyl)-4-(3-methoxyphenyl)piperidin-4-ol hydrochloride]
Female mice
  ED50: 0.49 mg/kg

## COc1cccc(C2(O)CCN(C(=O)CCc3cccc(C(F)(F)F)c3)CC2CN(C)C)c1.Cl (stereo not drawn) [FWBE10, 1-(3-((Dimethylamino)methyl)-4-hydroxy-4-(3-methoxyphenyl)piperidin-1-yl)-3-(3-(trifluoromethyl)phenyl)propyl-1-one hydrochloride]
μ opioid receptor
  Ki: 219 ± 9.8 nM
δ opioid receptor
  Ki: > 10000 nM
Female mice
  Maximum percentage effective analgesia (% MPE): 17.33%

## COc1cccc(C2(O)CCN(C(=O)Cc3cccc(Br)c3)CC2CN(C)C)c1.Cl (stereo not drawn) [FWBE11, 2-(3-Bromophenyl)-1-(3-((dimethylamino)methyl)-4-hydroxy-4-(3-methoxyphenyl)piperidin-1-yl)ethyl-1-one hydrochloride]
μ opioid receptor
  Ki: 57.6 ± 0.1 nM
δ opioid receptor
  Ki: > 10000 nM
Female mice
  Maximum percentage effective analgesia (% MPE): 98.31%

## COc1cccc(C2(O)CCN(C(=O)Cc3c[nH]c4ccccc34)CC2CN(C)C)c1 (stereo not drawn) [FWBE13, 1-(3-((Dimethylamino)methyl)-4-hydroxy-4-(3-methoxyphenyl)piperidin-1-yl)-2-(1H-indol-3-yl)ethyl-1-one]
μ opioid receptor
  Ki: 115 ± 4.1 nM
κ opioid receptor; Table 5-1, read-out: κOR Ki
  Ki: 3100 ± 79.5 nM
Female mice
  Maximum percentage effective analgesia (% MPE): 66.95%

## COc1cccc(C2(O)CCC(NS(=O)(=O)c3ccccc3)CC2CN(C)C)c1.Cl (stereo not drawn) [N-(3-((Dimethylamino)methyl)-4-hydroxy-4-(3-methoxyphenyl)cyclohexyl)benzenesulfonamide hydrochloride]
Female mice
  Maximum percentage effective analgesic (% MPE): 10.3%

## COc1cccc(C2(O)CCC(N(Cc3ccccc3)S(=O)(=O)c3cccc(Cl)c3)CC2CN(C)C)c1.Cl (stereo not drawn) [N-Benzyl-3-chloro-N-(3-((dimethylamino)methyl)-4-hydroxy-4-(3-methoxyphenyl)cyclohexyl)benzenesulfonamide hydrochloride]
Female mice
  Maximum percentage effective analgesic (% MPE): 6%

## COc1cccc(C2(O)CCC(N(Cc3ccccc3)S(=O)(=O)c3ccccc3)CC2CN(C)C)c1.Cl (stereo not drawn) [N-Benzyl-N-(3-((dimethylamino)methyl)-4-hydroxy-4-(3-methoxyphenyl)cyclohexyl)benzenesulfonamide hydrochloride]
Female mice
  Maximum percentage effective analgesic (% MPE): 0%
